Residues, ends and D or L forms follow the SMILES beside them. *: point of attachment. Cbz = O=C(OCc1ccccc1)*; CH2F = FC*

We go through 4 compounds from publication PMC2764853, “Versatile Assays for High Throughput Screening for Activators or Inhibitors of Intracellular Proteases and Their Cellular Regulators” (PLoS ONE, 2009).

Assay [1] relates to Caspase8 activated with FADD + Fas. Description: Yeast cleavable-reporter β-galactosidase assay, Fas/FADD/Caspase-8 three-component system (384 well). The conditions noted are these: for selectivity for Fas/FADD/Caspase-8 over Asc/Caspase-1 in yeast reporter assays: 384 well, various concentrations, 2–4 days at 30°C, OD620, counter-strains lacZ, Asc/Caspase-1, empty vector. Format: cell-based, human. How it is done:
(§1) Figure 5 Validation of yeast-based assay using pharmacological inhibitor of Caspases. (A) Caspase-1, single component assay. EGY48 yeast cells expressing S1 substrate (TEF-Fas-d-S1-TA) and high levels of Caspase-1 (TEF-HA-Caspase1-FLAG) were incubated for 3 days in selection media (SD/X-gal) with the indicated concentrations of z-VAD-fmk in DMSO (•) or DMSO only (○), using 384-well plates. (B) Asc/Caspase-1 two-component system. EGY48 yeast cells expressing S1 substrate (TEF-Fas-d-S1-TA) a low level of pro-Caspase-1 (ΔTEF1-Caspase1-FLAG) and high levels of Asc (TEF-HA-Asc) were incubated for 3 days in the selection media (SD/X-gal) in 384 well plates with the indicated concentrations of calpeptin (▴) or z-VAD-fmk (•) or an equivalent volume of DMSO (○). (C) Fas/FADD/Caspase8 three-component system. EGY48 yeast cells expressing S8 substrate (TEF-S8-TA), low levels of pro-Caspase-8 CYC1-Caspase-8-HA, with a small amount of FADD (from ΔADH1 promoter) and a large amount of Fas (from ADH promoter), were incubated in selection media (SD/X-gal) with the indicated concentrations of calpeptin (▴) or z-VAD-fmk (•), or equivalent volume of DMSO (○), in 384-well plates for 3–4 days. For (A–C), relative absorbance at 620 nm was measured (mean ± std dev; n = 3−5 independent experiments). (* indicates p<0.001).
Figure 6 HTS Implementation of yeast-based, 3-component Caspase assays. (A) Validation of HTS assay for NLRP1-Asc-Caspase-1 system. Yeast cells (18 µl, typically at ≈2×10^5 cells/well) containing NLRP1ΔLRR/Asc/Caspase-1 were plated into wells of 384 well plates in media containing 1% galactose, 0.2% raffinose. Wells also contained 18 µL selection media with (blue squares) or without (purple diamonds) X-gal substrate (400 µg/mL final Concentration) plus 10% DMSO (4 µl) (to simulate compound addition). The plates were incubated for 72 hrs at 30°C and the OD620 was recorded. Values (mean±std dev) were calculated for the assay maximum and minimum. The Z' factor was calculated as described. (B) Example of library screening plate for NLRP1-Asc-Caspase-1. Yeast cells (typically at ≈2×10^5 cells/well) containing NLRP1/Asc/Caspase-1 were plated in 384 well plates in Selection Media, without (purple triangles) or with (all other wells) 400 µg/ml X-gal (final concentration). Compounds in DMSO (∼10 µM final) had been pre-added to wells (diamonds). The plates were incubated for 72 hrs at 30°C and the OD620 was recorded, “Hits” were defined by >50% reduction (as shown in green diamonds). […] Yeast cells containing Fas/FADD/Caspase-8 were cultured in 384 well plates as above with (blue squares) or without (purple diamonds) X-gal substrate, the plates were incubated for 72 hrs at 30°C and analyzed as above. […] Plates were incubated for 48 hrs at 30°C and OD620 values recorded. […]
(In a reporter assay the amount or activity of a reporter protein is the signal.)

A further assay deals with T1, Caspase1 (Homo sapiens, UniProt P29466).
T1 construct: We expressed full-length Caspases-1, 2, 3, 4, 5, 6, 7, and 9 from high copy-number plasmids; HA (N); FLAG (C); expressed in transfected cells; host or cells: Saccharomyces cerevisiae EGY48
T1 sequence (P29466 120-297 limits assumed): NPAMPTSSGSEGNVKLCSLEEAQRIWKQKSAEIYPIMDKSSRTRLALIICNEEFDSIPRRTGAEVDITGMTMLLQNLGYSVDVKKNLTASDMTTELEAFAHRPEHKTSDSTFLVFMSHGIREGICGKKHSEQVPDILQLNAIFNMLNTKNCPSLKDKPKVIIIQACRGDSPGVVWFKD
T1 sequence (P29466 317-404 limits assumed): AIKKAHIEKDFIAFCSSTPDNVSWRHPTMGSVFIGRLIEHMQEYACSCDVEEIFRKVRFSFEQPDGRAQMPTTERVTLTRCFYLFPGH
The assay can be described thus: Yeast cleavable-reporter β-galactosidase assay, Caspase-1 single component (384 well). Type of assay: cell-based. Conditions: yeast expressing Caspase1 alone at high levels; 384 well β-galactosidase activity assay; read-out: IC50 for z-VAD inhibition of Caspases. The procedure: as §1, with “EGY48 yeast cells expressing S8 substrate (TEF-S8-TA), low levels of pro-Caspase-8 CYC1-Caspase-8-HA, with a small amount of FADD (from ΔADH1 promoter) and a large amount of Fas (from ADH promoter), were incubated in selection media (SD/X-gal) with the indicated concentrations of calpeptin (▴) or z-VAD-fmk (•), or equivalent volume of DMSO (○), in 384-well plates for 3–4 days.” left out, “(* indicates p<0.001).” left out
(§2) For caspase assays, the assays were performed in a total volume of 40 µl in triplicate. […] Absorbance at 620 nm was measured 2–3 days after culture at 30°C.
(§3) Supplementary file pone.0007655.s002.pdf: Table S1 Determination of IC50 values for zVAD-fmk inhibition of Caspases in yeast. […] The compound was titrated into assays at various concentrations and percentage inhibition was determined. IC50 values were determined, using PRIZM software for analysis. […]

Assay [2] addresses Caspase1 activated with Asc. The assay can be described thus: Yeast cleavable-reporter β-galactosidase assay, Asc/Caspase-1 two-component system (384 well). Type of assay: cell-based, human. The conditions noted are these: 384 well β-galactosidase activity assay, read-out: IC50 for z-VAD inhibition of Caspases. The procedure:
as §1, with “EGY48 yeast cells expressing S8 substrate (TEF-S8-TA), low levels of pro-Caspase-8 CYC1-Caspase-8-HA, with a small amount of FADD (from ΔADH1 promoter) and a large amount of Fas (from ADH promoter), were incubated in selection media (SD/X-gal) with the indicated concentrations of calpeptin (▴) or z-VAD-fmk (•), or equivalent volume of DMSO (○), in 384-well plates for 3–4 days.” left out, “(* indicates p<0.001).” left out
For caspase assays, the assays were performed in a total volume of 40 µl in triplicate. […] Absorbance at 620 nm was measured 2–3 days after culture at 30°C. […]
as §3

For another assay, the target named is T2, Caspase6 (Homo sapiens, UniProt P55212).
T2 construct: We expressed full-length Caspases-1, 2, 3, 4, 5, 6, 7, and 9 from high copy-number plasmids; HA (N); expressed in transfected cells; host or cells: Saccharomyces cerevisiae (EGY48)
T2 sequence (P55212 24-179 limits assumed): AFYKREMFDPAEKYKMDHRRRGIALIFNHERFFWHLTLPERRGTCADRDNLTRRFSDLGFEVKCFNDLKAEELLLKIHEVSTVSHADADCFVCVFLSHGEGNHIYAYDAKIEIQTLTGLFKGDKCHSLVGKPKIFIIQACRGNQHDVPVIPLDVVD
T2 sequence (P55212 194-293 limits assumed): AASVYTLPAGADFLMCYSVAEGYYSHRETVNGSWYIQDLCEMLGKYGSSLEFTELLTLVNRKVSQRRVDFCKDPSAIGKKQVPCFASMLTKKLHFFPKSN
The assay can be described thus: Yeast cleavable-reporter β-galactosidase assay, Caspase-6 (384 well). Format: cell-based. Conditions: yeast expressing Caspase6; 384 well β-galactosidase activity assay; read-out: IC50 for z-VAD inhibition of Caspases. How it is done: (§4) For caspase assays, the assays were performed in a total volume of 40 µl in triplicate. First, 20 µl of liquid selection media containing X-gal and a series of concentrations of reagents such as z-VAD was dispensed into each well of 384-well plates. Next, confluent yeast cells expressing various Caspases and cleavable substrates were collected, washed with water, and suspended in selection media of the same volume as the culture media. The yeast suspension was diluted to 1∶5-10 (v:v) with the selection media, and 20 µl aliquots were added to the 384-well plates. For ATG4B assays, yeast cells expressing ATG4B and LC3 fused-transcription factor were cultured overnight in standard growth medium, then the yeast cells were diluted in selection medium (SD medium containing 1% galactose, 0.2% raffinose, BU salts, and 100 µg/ml X-gal) at 10^4/ml and dispensed 100 µl into each well of 384-well plates. Absorbance at 620 nm was measured 2–3 days after culture at 30°C.
as §3

Assay [3] deals with Caspase9 activated with Apaf*. Description: Yeast cleavable-reporter β-galactosidase assay, Apaf*/Caspase-9 (384 well). Type of assay: cell-based, human. The conditions noted are these: 384 well β-galactosidase activity assay, read-out: IC50 for z-VAD inhibition of Caspases. The procedure: as §4, §3
Assay [4] deals with Caspase10 activated with FADD. Description: Yeast cleavable-reporter β-galactosidase assay, FADD/Caspase-10 (384 well). The conditions noted are these: 384 well β-galactosidase activity assay, read-out: IC50 for z-VAD inhibition of Caspases. Type of assay: cell-based, human. The procedure: as §4, §3
The target in the next assay is Caspases. The assay can be described thus: Yeast-based Caspase-dependent lacZ reporter gene assays, 384 well format (summary over assays). Type of assay: cell-based, human. The procedure:
We further validated the 384 well assay format, using zVAD-fmk, a peptidyl inhibitor with broad-spectrum activity against animal Caspases. For some experiments, a Calpain inhibitor was employed in side-by-side experiments as a control. The broad-spectrum Caspase inhibitor zVAD-fmk inhibited β-galactosidase activity in a dose-dependent fashion, with the concentration required for achieving 50% inhibition ranging from ∼1–10 µM in these assays, which were performed in 384 well format (Figure 5) (Table S1). […] These experiments verify that the 384 well version of the yeast-based Caspase-dependent reporter gene assay faithfully indicates the activity of an inhibitory compound, thus fulfilling one of the prerequisites for developing HTS assays.
Figure 5 Validation of yeast-based assay using pharmacological inhibitor of Caspases. (A) Caspase-1, single component assay. EGY48 yeast cells expressing S1 substrate (TEF-Fas-d-S1-TA) and high levels of Caspase-1 (TEF-HA-Caspase1-FLAG) were incubated for 3 days in selection media (SD/X-gal) with the indicated concentrations of z-VAD-fmk in DMSO (•) or DMSO only (○), using 384-well plates. […] For (A–C), relative absorbance at 620 nm was measured (mean ± std dev; n = 3−5 independent experiments). […]
as §2

In assay [5] the test system is NLRP1/ASC/Caspase-1 proteolytic network. The assay can be described thus: Yeast cleavable-reporter β-galactosidase assay, NLRP1/ASC/Caspase-1 three-component system (384 well). Format: cell-based, human. Conditions: 100 µM zVAD final, 2×10^5 cells/well, 48 hours, 400 µg/ml X-gal; Assay Max (DMSO) 0.78. The procedure:
For the Fas/FADD/Caspase-8 and the NLRP1/Asc/Caspase-1 assays, EGY48 yeast containing the desired plasmids were streaked onto SD plates (6.8 g Yeast Nitrogen Base w/o amino acids, 20 mg arginine, 50 mg threonine, 30 mg isoleucine, 60 mg phenylalanine, 20 mg valine) containing agar (1.7%), supplemented with 2% α-D-glucose and 50 µg/mL leucine. The plates were incubated at 30°C for 48 hrs and a colony was picked and transferred to a 14 ml polypropylene tube containing 2 ml of SD media broth supplemented with α-D-glucose and leucine as above and grown at 30°C for 16–24 hrs with shaking. Then, 1 ml of the overnight culture was transferred into 20 mls of growth media in a 500 ml flask and shaken at 30°C for 16–24 hrs. […] After 48 hours, the plates were brought to room temperature, the breathable film removed and replaced with the transparent polyester tape seal, and the plates were mixed, pelleted briefly and read using a Beckman DTX 880, recording absorbance at 620 nm.
Supplementary file pone.0007655.s020.pdf: Figure S18 Determination of Z' scores for NLRP1(NALP1) and Fas(CD95) 3-component yeast-based HTS assays using caspase inhibitor zVAD-fmk. […] The Z' scores were determined by comparison of the DMSO-treated samples with the zVAD-treated samples. […]

With `C[n+]1cc2c3c(ccc2c2ccc4cc5c(cc4c21)OCO5)OCO3` [CID-5154], in assay [1], the “selectivity for Fas/FADD/Caspase-8 over Asc/Caspase-1 in yeast reporter assays” value is “selective inhibition of Fas-FADD-Caspase-8”.

For the compound `COC(=O)C[C@H](NC(=O)[C@H](C)NC(=O)[C@@H](NC(=O)OCc1ccccc1)C(C)C)C(=O)CF` [zVAD-fmk] (Cbz-Val-Ala-Asp(OMe)-CH2F), the IC50 on Caspase1 came out at 3.07 µM; in assay [2], 1 µM; on Caspase6 it was 6.78 µM; in assay [1] (yeast, Caspase8 activated with FADD + Fas, 384 well β-galactosidase activity assay, read-out: IC50 for z-VAD inhibition of Caspases) it was 5.42 µM; in assay [3] it was 10.7 µM; in assay [4], 9.52 µM. Besides, the IC50 on Caspases (range over the yeast Caspase assays, dose-dependent, read-out: concentration required for achieving 50% inhibition of β-galactosidase activity) lay in the range of 1 to 10 µM. The “Assay Min (zVAD), absorbance OD620” value is 0.20 in assay [1] (100 µM zVAD final, 2×10^5 cells/well, 48 hours, 400 µg/ml X-gal, Assay Max (DMSO) 0.56) and 0.19 in assay [5].

Take `c1ccc2c(c1)[I+]c1ccccc1-2` [CID-3101]: in assay [1], the “selectivity for Fas/FADD/Caspase-8 over Asc/Caspase-1 in yeast reporter assays” value is given as “selective inhibition of Fas-FADD-Caspase-8”.

Turning to `CCCC[C@@H](C=O)NC(=O)[C@H](CC(C)C)NC(=O)OCc1ccccc1` [Calpain inhibitor, calpeptin], the “suppression of activation of the lacZ reporter gene” value in the assay with Caspases (control compound side-by-side with zVAD-fmk) is reported as “did not suppress activation of the lacZ reporter gene”.
